According to patent publication US6844020B2, “Solutions of carotenoids for use in foods and personal care products” (Kemin Foods, L.C., priority 2002, dated 2005):
“And” between values parts separate entries of the source, which are not always exact repeats. Identical values can stand only once. Like-named read-outs stand apart in the source and are kept apart here. Blank lines part the entries; values can stand above or below the compound they belong to.

How the values were obtained:
[1] = Astaxanthin solubility in essential oils; assay type: physicochemical
Description: (§1) Astaxanthin was dissolved in each oil until visibly saturated. The sample was then blanketed with argon and sonicated for ten minutes. When the sample was completely saturated, the solution was transferred to a micro centrifuge tube and centrifuged at 14,000 rpm for 10 minutes. The clarified oil was then analyzed for astaxanthin content. The method for analyzing lutein crystals was used to analyze astaxanthin, however, a few modifications were made. First, methylene chloride was substituted for […] when dissolving the samples. […] When determining total carotenoids, the absorbance was measured at 470 nm rather than 446 nm. [formula] [formula] [formula] Canthaxanthin in Essentials Oils

[2] = Beta-carotene solubility in essential oils; assay type: physicochemical
Description: Beta-carotene was dissolved in each oil until visibly saturated. The sample was then blanketed with argon and sonicated for ten minutes. When the sample was completely saturated, the solution was transferred to a micro centrifuge tube and centrifuged at 14,000 rpm for 10 minutes. The clarified oil was then analyzed for beta-carotene content. The method for analyzing lutein crystals, with a few modifications, was used to analyze beta-carotene. First, methylene chloride was substituted for […] when dissolving the samples. Second, when determining total carotenoids, the absorbance was measured at 453 nm rather than 446 nm. [formula] [formula] [formula]
% Beta Carotene=% Carotenoids*(% Total HPLC area of Beta Carotene/100)

[3] = cited from earlier work
[4] = assay type: physicochemical
Description: as §1, with “Canthaxanthin” for “Astaxanthin”, “microcentrifuge” for “micro centrifuge”, “canthaxanthin” for “astaxanthin”, “canthaxanthin,” for “astaxanthin,”, “466” for “470”, “Results and Discussion” for “[formula] Canthaxanthin in Essentials Oils”

[5] = consumption of lutein and zeaxanthin; Seddon et al., 1994; cited from earlier work
[6] = Zeaxanthin solubility in essential oils; assay type: physicochemical
Description: as §1, with “Zeaxanthin” for “Astaxanthin”, “zeaxanthin” for “astaxanthin”, “zeaxanthin,” for “astaxanthin,”, “450” for “470”, “[formula]” for “[formula] Canthaxanthin in Essentials Oils”
% Zeaxanthin=% Carotenoids*(% Total HPLC area of zeaxanthin/100)

[7] = in Carvacrol (clear oil), 282-197, lot 13403CI
[8] = in Spearmint oil, 05-6250-11, lot SP43-0208
[9] = in Thyme oil, White, 05-6275-01, lot TLC11-T049
[10] = in Bay oil, 50-6025-01, lot BA41-0484
[11] = in Cornmint, redistilled oil, 50-6100-01, lot CR43-0155
[12] = in Peppermint, Yakima redistilled oil, 50-6225-21, lot PY43-0157
[13] = in Spearmint, redistilled oil, 50-6250-11, lot 39SR-0163
[14] = in Tea Tree oil, 50-6270-01, lot TX43-0146
[15] = in Thyme, Pure oil, 50-6275-04, lot TP41-0053
[16] = in Thyme, Red oil, 50-6275-02, lot TR43-0158
[17] = in Thyme, White oil, 50-6275-01, lot TLC11-T477
[18] = in Thyme, White (NOW) oil, 7635

- % Astaxanthin by HPLC [1, 7]: 0.2420%
- % Astaxanthin by HPLC ([1]; in Carvacrol (clear oil), 282-197, lot 13403CI, listed as astaxanthin): ~0.24%
- % Astaxanthin by HPLC [1, 8]: 0.0301%
- % Astaxanthin by HPLC [1, 9]: 0.1876%
- times less soluble than lutein ([1]; in spearmint oil): 33 times
- times less soluble than lutein ([1]; in white thyme oil): 16 times
SMILES: CC1=C(/C=C/C(C)=C/C=C/C(C)=C/C=C/C=C(C)/C=C/C=C(C)/C=C/C2=C(C)C(=O)[C@@H](O)CC2(C)C)C(C)(C)C[C@H](O)C1=O [Astaxanthin, astaxanthin]

- % Beta-Carotene [2, 10]: 0.16% and 0.163%
- % Beta-Carotene [2, 11]: 0.252%
- % Beta-Carotene [2, 12]: 0.263%
- % Beta-Carotene [2, 13]: 0.532%
- % Beta-Carotene [2, 14]: 0.427%
- % Beta-Carotene [2, 15]: 0.245%
- % Beta-Carotene [2, 16]: 0.267%
- % Beta-Carotene [2, 17]: 0.273%
SMILES: CC1=C(/C=C/C(C)=C/C=C/C(C)=C/C=C/C=C(C)/C=C/C=C(C)/C=C/C2=C(C)CCCC2(C)C)C(C)(C)CCC1 [Beta-carotene, β-carotene]
- reported solubility ([3]; in "fats and oils"): 0.05-0.08%

- % Canthaxanthin by HPLC [4, 7]: 0.0020%
- % Canthaxanthin by HPLC [4, 8]: 0.0028%
- % Canthaxanthin by HPLC [4, 9]: 0.0036%
SMILES: CC1=C(/C=C/C(C)=C/C=C/C(C)=C/C=C/C=C(C)/C=C/C=C(C)/C=C/C2=C(C)C(=O)CCC2(C)C)C(C)(C)CCC1=O [Canthaxanthin, canthaxanthin]

- % Carotenoids [6, 10]: 0.281%
- % Zeaxanthin [6, 10]: 0.276%
- % Carotenoids [6, 11]: 0.403%
- % Zeaxanthin [6, 11]: 0.397%
- % Carotenoids [6, 12]: 0.452%
- % Zeaxanthin [6, 12]: 0.446%
- % Carotenoids [6, 13]: 0.374%
- % Zeaxanthin [6, 13]: 0.369%
- % Carotenoids ([6]; in Tea Tree (NOW) oil, 7625): 0.398%
- % Zeaxanthin ([6]; in Tea Tree (NOW) oil, 7625): 0.394%
- % Carotenoids [6, 14]: 0.364%
- % Zeaxanthin [6, 14]: 0.361%
- % Carotenoids [6, 15]: 0.920%
- % Zeaxanthin [6, 15]: 0.916%
- % Carotenoids [6, 16]: 1.063%
- % Zeaxanthin [6, 16]: 1.059%
- % Carotenoids [6, 18]: 0.784%
- % Zeaxanthin [6, 18]: 0.782%
- % Carotenoids [6, 17]: 1.049%
- % Zeaxanthin [6, 17]: 1.043%
- zeaxanthin solubility ([6]; in all of the oils except the thyme oils): less than 1%
- zeaxanthin solubility ([6]; in thyme oil): ~1%
SMILES: CC1=C(/C=C/C(C)=C/C=C/C(C)=C/C=C/C=C(C)/C=C/C=C(C)/C=C/C2=C(C)C[C@@H](O)CC2(C)C)C(C)(C)C[C@H](O)C1 [Zeaxanthin, zeaxanthin]
- reduction in age-related macular degeneration [5]: 57%
- reported solubility ([3]; in corn oil): 0.004%
